From the NIST ThermoML archive (doi:10.1016/j.jct.2018.08.007)
Several values for one entry are separate records, joined by “and”; a condition that tells them apart may be missing. Identical values can stand only once. Numbers after ± are expanded uncertainties.

Experiment: mn = molality of the nth substance listed, in mol/kg
Conditions: 100 kPa, Liquid; for viscosity: Capillary tube (Ostwald / Ubbelohde) method; for mass density: Vibrating tube method

CN(CC(=O)O)C(=N)N [N-amidinosarcasine] + O
Conditions | mass density, 293.15 K [kg/m3] | mass density, 298.15 K [kg/m3] | mass density, 303.15 K [kg/m3] | mass density, 308.15 K [kg/m3] | mass density, 313.15 K | viscosity, 293.15 K [mPa·s] | viscosity, 298.15 K [mPa·s] | viscosity, 303.15 K [mPa·s] | viscosity, 308.15 K [mPa·s] | viscosity, 313.15 K [mPa·s]
m1 = 0.02 | – | – | – | – | – | 1.008 ± 0.02 | 0.895 ± 0.018 | 0.804 ± 0.016 | 0.723 ± 0.014 | 0.658 ± 0.013
m1 = 0.03 | – | – | – | – | – | 1.011 ± 0.02 | 0.898 ± 0.018 | 0.806 ± 0.016 | 0.727 ± 0.015 | 0.659 ± 0.013
m1 = 0.0306 | 999.51 ± 1.4 | 998.33 ± 1.4 | 996.9 ± 1.4 | 995.23 ± 1.4 | 993.35 ± 1.4 kg/m3 | – | – | – | – | –
m1 = 0.04 | 999.9 ± 1.4 | 998.72 ± 1.4 | 997.28 ± 1.4 | 995.6 ± 1.4 | 993.7 ± 1.4 kg/m3 | 1.014 ± 0.02 | 0.901 ± 0.018 | 0.808 ± 0.016 | 0.729 ± 0.015 | 0.662 ± 0.013
m1 = 0.0406 | 999.93 ± 1.4 | 998.74 ± 1.4 | 997.31 ± 1.4 | 995.63 ± 1.4 | 993.73 ± 1.4 kg/m3 | – | – | – | – | –
m1 = 0.0477 | 1000.23 ± 1.4 | 999.04 ± 1.4 | 997.6 ± 1.4 | 995.91 ± 1.4 | 994 ± 1.4 kg/m3 | – | – | – | – | –
m1 = 0.05 | 1000.33 ± 1.4 | 999.13 ± 1.4 | 997.69 ± 1.4 | 996 ± 1.4 | 994.09 ± 1.4 kg/m3 | 1.017 ± 0.02 | 0.904 ± 0.018 | 0.81 ± 0.016 | 0.731 ± 0.015 | 0.664 ± 0.013
m1 = 0.0548 | 1000.53 ± 1.4 | 999.33 ± 1.4 | 997.89 ± 1.4 | 996.2 ± 1.4 | 994.28 ± 1.4 kg/m3 | – | – | – | – | –
m1 = 0.0564 | 1000.59 ± 1.4 | 999.4 ± 1.4 | 997.96 ± 1.4 | 996.26 ± 1.4 | 994.35 ± 1.4 kg/m3 | – | – | – | – | –
m1 = 0.0597 | 1000.73 ± 1.4 | 999.53 ± 1.4 | 998.09 ± 1.4 | 996.39 ± 1.4 | 994.47 ± 1.4 kg/m3 and 994.48 ± 1.4 kg/m3 | 1.019 ± 0.02 | 0.907 ± 0.018 | 0.811 ± 0.016 | 0.733 ± 0.015 | 0.665 ± 0.013
m1 = 0.0675 | 1001.06 ± 1.4 | 999.86 ± 1.4 | 998.41 ± 1.4 | 996.71 ± 1.4 | 994.79 ± 1.4 kg/m3 | – | – | – | – | –
m1 = 0.0701 | 1001.17 ± 1.4 | 999.96 ± 1.4 | 998.52 ± 1.4 | 996.82 ± 1.4 | 994.89 ± 1.4 kg/m3 | 1.024 ± 0.02 | 0.91 ± 0.018 | 0.817 ± 0.016 | 0.737 ± 0.015 | 0.669 ± 0.013
m1 = 0.0727 | 1001.27 ± 1.4 | 1000.07 ± 1.4 | 998.63 ± 1.4 | 996.92 ± 1.4 | 995 ± 1.4 kg/m3 | – | – | – | – | –
m1 = 0.0782 | 1001.5 ± 1.4 | 1000.29 ± 1.4 | 998.85 ± 1.4 | 997.15 ± 1.4 | 995.22 ± 1.4 kg/m3 | – | – | – | – | –
m1 = 0.08 | 1001.58 ± 1.4 | 1000.37 ± 1.4 | 998.93 ± 1.4 | 997.22 ± 1.4 | 995.3 ± 1.4 kg/m3 | 1.028 ± 0.02 | 0.913 ± 0.018 | 0.818 ± 0.016 | 0.738 ± 0.015 | 0.67 ± 0.013
m1 = 0.0898 | 1001.98 ± 1.4 | 1000.77 ± 1.4 | 999.34 ± 1.4 | 997.63 ± 1.4 | 995.71 ± 1.4 kg/m3 | – | – | – | – | –
m1 = 0.09 | 1001.99 ± 1.4 | 1000.78 ± 1.4 | 999.34 ± 1.4 | 997.64 ± 1.4 | 995.71 ± 1.4 kg/m3 | 1.033 ± 0.021 | 0.917 ± 0.018 | 0.823 ± 0.016 | 0.74 ± 0.015 | 0.672 ± 0.013
m1 = 0.0926 | 1002.1 ± 1.4 | 1000.89 ± 1.4 | 999.45 ± 1.4 | 997.74 ± 1.4 | 995.82 ± 1.4 kg/m3 | – | – | – | – | –
m1 = 0.1038 | 1002.56 ± 1.4 | 1001.35 ± 1.4 | 999.92 ± 1.4 | 998.21 ± 1.4 | 996.3 ± 1.4 kg/m3 | – | – | – | – | –
m1 = 0.1113 | 1002.87 ± 1.4 | 1001.65 ± 1.4 | 1000.23 ± 1.4 | 998.53 ± 1.4 | 996.62 ± 1.4 kg/m3 | – | – | – | – | –
m1 = 0.1207 | 1003.25 ± 1.4 | 1002.04 ± 1.4 | 1000.62 ± 1.4 | 998.93 ± 1.4 | 997.03 ± 1.4 kg/m3 | – | – | – | – | –
m1 = 0.1287 | 1003.58 ± 1.4 | 1002.36 ± 1.4 | 1000.96 ± 1.4 | 999.26 ± 1.4 | 997.39 ± 1.4 kg/m3 | – | – | – | – | –
m1 = 0.1326 | 1003.74 ± 1.4 | 1002.52 ± 1.4 | 1001.12 ± 1.4 | 999.43 ± 1.4 | 997.56 ± 1.4 kg/m3 | – | – | – | – | –

CN1CC(=O)NC1=N [creatinine] + O
Conditions | mass density, 293.15 K [kg/m3] | mass density, 298.15 K [kg/m3] | mass density, 303.15 K [kg/m3] | mass density, 308.15 K [kg/m3] | mass density, 313.15 K [kg/m3] | viscosity, 293.15 K [mPa·s] | viscosity, 298.15 K [mPa·s] | viscosity, 303.15 K [mPa·s] | viscosity, 308.15 K [mPa·s] | viscosity, 313.15 K [mPa·s]
m1 = 0.1001 | 1001.16 ± 1.4 | 999.95 ± 1.4 | 998.49 ± 1.4 | 996.82 ± 1.4 | 994.94 ± 1.4 | – | – | – | – | –
m1 = 0.147 | 1002.53 ± 1.4 | 1001.29 ± 1.4 | 999.82 ± 1.4 | 998.13 ± 1.4 | 996.21 ± 1.4 | – | – | – | – | –
m1 = 0.2001 | – | – | – | – | – | 1.053 ± 0.021 | 0.935 ± 0.019 | 0.837 ± 0.017 | 0.755 ± 0.015 | 0.685 ± 0.014
m1 = 0.202 | 1004.12 ± 1.4 | 1002.86 ± 1.4 | 1001.37 ± 1.4 | 999.64 ± 1.4 | 997.69 ± 1.4 | – | – | – | – | –
m1 = 0.25 | 1005.5 ± 1.4 | 1004.22 ± 1.4 | 1002.71 ± 1.4 | 1000.97 ± 1.4 | 999 ± 1.4 | – | – | – | – | –
m1 = 0.2999 | – | – | – | – | – | 1.077 ± 0.021 | 0.956 ± 0.019 | 0.856 ± 0.017 | 0.772 ± 0.015 | 0.7 ± 0.014
m1 = 0.3023 | 1006.99 ± 1.4 | 1005.69 ± 1.4 | 1004.16 ± 1.4 | 1002.4 ± 1.4 | 1000.43 ± 1.4 | – | – | – | – | –
m1 = 0.3496 | 1008.33 ± 1.4 | 1007.01 ± 1.4 | 1005.48 ± 1.4 | 1003.7 ± 1.4 | 1001.71 ± 1.4 | – | – | – | – | –
m1 = 0.3996 | – | – | – | – | – | 1.102 ± 0.022 | 0.978 ± 0.019 | 0.875 ± 0.017 | 0.789 ± 0.016 | 0.715 ± 0.014
m1 = 0.4028 | 1009.83 ± 1.4 | 1008.48 ± 1.4 | 1006.94 ± 1.4 | 1005.13 ± 1.4 | 1003.12 ± 1.4 | – | – | – | – | –
m1 = 0.5002 | – | – | – | – | – | 1.126 ± 0.022 | 0.999 ± 0.02 | 0.894 ± 0.018 | 0.806 ± 0.016 | 0.73 ± 0.015
m1 = 0.5014 | 1012.57 ± 1.4 | 1011.2 ± 1.4 | 1009.63 ± 1.4 | 1007.79 ± 1.4 | 1005.76 ± 1.4 | – | – | – | – | –
m1 = 0.5514 | 1013.95 ± 1.4 | 1012.56 ± 1.4 | 1010.97 ± 1.4 | 1009.12 ± 1.4 | 1007.08 ± 1.4 | – | – | – | – | –
m1 = 0.6 | – | – | – | – | – | 1.15 ± 0.023 | 1.02 ± 0.02 | 0.912 ± 0.018 | 0.822 ± 0.016 | 0.745 ± 0.015
m1 = 0.6018 | 1015.33 ± 1.4 | 1013.93 ± 1.4 | 1012.34 ± 1.4 | 1010.48 ± 1.4 | 1008.4 ± 1.4 | – | – | – | – | –
m1 = 0.6087 | 1015.52 ± 1.4 | 1014.11 ± 1.4 | 1012.53 ± 1.4 | 1010.65 ± 1.4 | 1008.61 ± 1.4 | – | – | – | – | –
m1 = 0.6491 | 1016.62 ± 1.4 | 1015.21 ± 1.4 | 1013.61 ± 1.4 | 1011.72 ± 1.4 | 1009.65 ± 1.4 | – | – | – | – | –
m1 = 0.7 | – | – | – | – | – | 1.173 ± 0.023 | 1.04 ± 0.021 | 0.93 ± 0.019 | 0.838 ± 0.017 | 0.759 ± 0.015
